According to patent publication US11716944B1, “Method for improving one-time seedling rate of microspore embryoids of brassica campestris SSP. chinensis makino” (Anhui Agricultural University, priority 2021, dated 2023):

Columns and labels:
[1] = system: Brassica campestris ssp. Chinensis Makino; assay: Effects of different concentrations of 6-BA sprayed onto flower buds on the embryogenesis rate; format: in vivo; settings: for embryogenesis rate increased by: compared with no 6-BA
Protocol: In this example, a method for improving a one-time seedling rate of microspore embryoids of Brassica campestris ssp. Chinensis Makino included the steps of: • (1) pretreatment of flower bud • a concentration of 100 mg/L of 6-BA was sprayed onto a flower bud of a plant of Brassica campestris ssp. Chinensis Makino at a full-bloom stage after squaring; on the second day after the spraying of 6-BA, an inflorescence, which was specifically a main inflorescence or a healthy inflorescence of a primary branch of a plant without insect pests and cracked buds, was selected, placed in a self-sealing bag and sprayed with clean water, and then stored in a refrigerator at 4° C. for 1 day for later use; • (2) isolation of microspores • a flower bud with a petal length/anther length between 0.5-1 was selected, firstly sterilized with 70% alcohol for 30 s, then sterilized with 0.1% HgCl2 under shaking for 6 min, and then rinsed with sterilized water for 2 times, with each time for 5 min; then, the flower bud was crushed in a B5 medium with a glass rod to release microspores, and the microspores were filtered by a 300-mesh steel-wire mesh screen and a cell mesh screen successively; subsequently, a filtrate was collected into a centrifugal tube and centrifuged under the condition of 1,000 r/min for 3 min; and after the centrifuging, a pellet was resuspended with a B5 medium, and the resuspended solution was centrifuged again under the condition of 1,000 r/min for 3 min to obtain a pellet as the purified microspores desired for the objective; • (3) culture of microspores • the purified microspores were diluted with a NLN medium, and a cell density was adjusted to about 1.5 × 10^5 /mL^-1 (at this time, the medium was pale yellow); subsequently, the diluted purified microspores were subpackaged into culture dishes, and added with phytic acid PA at a concentration of 0.15%; and finally, the microspores were subjected to heat shock treatment at 33° C. for 24 h, then transferred to culture in the dark at 25° C., and placed onto a shaker for shaking culture after embryoids visible to naked eyes appeared; and • (4) germination and seedling of embryoids • the cultured embryoids in a cotyledon stage with a length of 2.8 mm were transferred onto a MS medium for differentiation culture, wherein culture conditions were 4° C., 14 h of illumination by blue-red compound light/day, and 14 days of culture; and then, the culture was continued under a condition of 25° C. and 14 h of illumination by blue-red compound light/day until seedling; wherein the ratio of blue light to red light in the blue-red compound light was 1:1. This example was used for verifying the effects of different concentrations of 6-BA on the embryogenesis rate of Brassica campestris ssp. Chinensis Makino: Method: in the pretreatment process of the flower buds, after squaring of Brassica campestris ssp. Chinensis Makino, at the full flowering stage, 6-BA solutions with concentrations of 0, 50, 100, 150 and 200 mg/L were prepared and sprayed onto the flower buds respectively, so as to study the effects of different concentrations of 6-BA on the embryogenesis rate of Brassica campestris ssp. Chinensis Makino (other steps were the same, and were conducted with reference to Example 3).

[2] = system: purified microspores of Brassica campestris ssp. Chinensis Makino; assay: Effects of different concentrations of phytic acid PA added in microspore culture on the embryogenesis rate; format: cell-based
Protocol: In this example, a method for improving a one-time seedling rate of microspore embryoids of Brassica campestris ssp. Chinensis Makino included the steps of: • (1) pretreatment of flower bud • a concentration of 100 mg/L of 6-BA was sprayed onto a flower bud of a plant of Brassica campestris ssp. Chinensis Makino at a full-bloom stage after squaring; on the second day after the spraying of 6-BA, an inflorescence, which was specifically a main inflorescence or a healthy inflorescence of a primary branch of a plant without insect pests and cracked buds, was selected, placed in a self-sealing bag and sprayed with clean water, and then stored in a refrigerator at 4° C. for 1 day for later use; • (2) isolation of microspores • a flower bud with a petal length/anther length between 0.5-1 was selected, firstly sterilized with 70% alcohol for 30 s, then sterilized with 0.1% HgCl2 under shaking for 6 min, and then rinsed with sterilized water for 2 times, with each time for 5 min; then, the flower bud was crushed in a B5 medium with a glass rod to release microspores, and the microspores were filtered by a 300-mesh steel-wire mesh screen and a cell mesh screen successively; subsequently, a filtrate was collected into a centrifugal tube and centrifuged under the condition of 1,000 r/min for 3 min; and after the centrifuging, a pellet was resuspended with a B5 medium, and the resuspended solution was centrifuged again under the condition of 1,000 r/min for 3 min to obtain a pellet as the purified microspores desired for the objective; • (3) culture of microspores • the purified microspores were diluted with a NLN medium, and a cell density was adjusted to about 1.5 × 10^5 /mL^-1 (at this time, the medium was pale yellow); subsequently, the diluted purified microspores were subpackaged into culture dishes, and added with phytic acid PA at a concentration of 0.15%; and finally, the microspores were subjected to heat shock treatment at 33° C. for 24 h, then transferred to culture in the dark at 25° C., and placed onto a shaker for shaking culture after embryoids visible to naked eyes appeared; and • (4) germination and seedling of embryoids • the cultured embryoids in a cotyledon stage with a length of 2.8 mm were transferred onto a MS medium for differentiation culture, wherein culture conditions were 4° C., 14 h of illumination by blue-red compound light/day, and 14 days of culture; and then, the culture was continued under a condition of 25° C. and 14 h of illumination by blue-red compound light/day until seedling; wherein the ratio of blue light to red light in the blue-red compound light was 1:1. This example was used for verifying the effects of different concentrations of phytic acid PA on the embryogenesis rate of Brassica campestris ssp. Chinensis Makino: Method: in the process of microspore culture, the purified microspores subjected to density dilution were subpackaged into culture dishes, and added with phytic acid PA at concentrations of 0, 0.01%, 0.1%, 0.15%, 0.5% and 1% respectively, so as to study the effects of different concentrations of phytic acid PA on the embryogenesis rate of Brassica campestris ssp. Chinensis Makino (other steps were the same, and conducted with reference to Example 3).

## c1ccc(CNc2ncnc3[nH]cnc23)cc1 [6-BA]
[1]; 6-BA 50 mg/L sprayed onto flower buds
  Average embryogenesis rate: 0.92 embryo/bud
[1]; 6-BA 50 mg/L
  embryogenesis rate increased by: 38.46%
[1]; 6-BA 100 mg/L sprayed onto flower buds
  Average embryogenesis rate: 1.56 embryo/bud
[1]; 6-BA 100 mg/L
  embryogenesis rate increased by: 100%
[1]; 6-BA 150 mg/L sprayed onto flower buds
  Average embryogenesis rate: 1.08 embryo/bud
[1]; 6-BA 150 mg/L
  embryogenesis rate increased by: 17.95%
[1]; 6-BA 200 mg/L sprayed onto flower buds
  Average embryogenesis rate: 0.74 embryo/bud
[1]; 6-BA 200 mg/L, compared with that without application of the 6-BA solution
  embryogenesis rate decreased by: 5.13%

## O=P(O)(O)O[C@H]1[C@H](OP(=O)(O)O)[C@@H](OP(=O)(O)O)[C@H](OP(=O)(O)O)[C@@H](OP(=O)(O)O)[C@H]1OP(=O)(O)O [PA, Phytic acid]
[2]; PA 0.01% in medium
  Average embryogenesis rate: 0.774 embryo/bud
[2]; PA 0.01%, compared with the medium without addition of PA
  embryogenesis rate increased by: 21%
[2]; PA 0.1% in medium
  Average embryogenesis rate: 1.495 embryo/bud
[2]; PA 0.1%, compared with the medium without addition of PA
  embryogenesis rate increased by: 134%
[2]; PA 0.15% in medium
  Average embryogenesis rate: 1.137 embryo/bud
[2]; PA 0.15%, compared with the medium without addition of PA
  embryogenesis rate increased by: 78%
[2]; PA 0.5% in medium
  Average embryogenesis rate: 0.789 embryo/bud
[2]; PA 0.5%, compared with the medium without addition of PA
  embryogenesis rate increased by: 23%
[2]; PA 1% in medium
  Average embryogenesis rate: 0.487 embryo/bud
[2]; PA 1%, compared with the medium without addition of PA
  embryogenesis rate decreased by: 24%
